Data taken from a melting point compilation (Tetko et al.; mined from patent text by program, amines drawn as free bases though some values may be those of a salt).

| melting point | Structure (SMILES) |
| --- | --- |
| 57 to 60 °C | CCCCNC(=O)Oc1ccc(Oc2ccccc2)cc1Br |
| 180 °C | Cc1c(SCCN2CCc3ccccc3C2)ccnc1CSc1nc2ncccc2[nH]1 |
| 167 to 169 °C | COc1cc(C)c2c(c1OC)CCC1C(=O)N(C)C(=O)C21 (centres undefined) |
| 244 to 247 °C | CS(=O)(=O)N1Cc2cccc(-c3ccc4cnc(Nc5ccc(C6CCN(CC(N)=O)CC6)cc5)nn34)c2C1 |
| 193 to 195 °C | CCN1C(=O)C(C)(C)C(=O)N(C)c2cc(CN(CCn3cc(C)c4occc4c3=O)Cc3cc(C)nn3C)ccc21 |
| 263 to 265 °C | Nc1c(-c2cc(Cl)ccc2O)c2c(Cl)c(Cl)ccc2[nH]c1=O |
| 74.5 to 75.5 °C | CCOc1ccc(C=O)cc1CCl |
| 69 to 72 °C | O=Cc1cc(=O)c(OCc2ccccc2)c(C(=O)c2ccc(Cc3ccc(F)cc3)o2)o1 |
| 145 to 150 °C | CC(C)(C)OC(=O)NCC1CC(ON2C(=O)c3ccccc3C2=O)C1 (centres undefined) |
| 120 °C | CC(=O)c1ccc(C(=O)NC/C=C/c2ccccc2)cc1 |
| 40 to 43 °C | NCc1cccc(N)c1 |
| > 300 °C | CC1CC(=O)NN=C1c1ccc(NC2=CC(=O)CC2)cc1 (centres undefined) |
| 80 to 81 °C | O=C(NCCCCC1CCSS1)N1CCSCC1 (centres undefined) |
| 102 to 123 °C | NCc1ccc(CO)cc1 |
| 180 to 181 °C | Nc1ccc(C(=O)NO)c(O)c1 |
| 117 to 119 °C | COCC1Cc2c(Cl)c(C)cc([N+](=O)[O-])c2O1 (centres undefined) |
| 112 to 113 °C | CC(=O)C1CCC2C3CCC4CC(OC(=O)CI)CCC4(C)C3C(OC(=O)CI)CC12C (centres undefined) |
| 117 to 119 °C | CSCCNC(=O)N(C)c1cnc(-c2cncc(F)c2)s1 |
| 187 to 189 °C | COc1ccc(-c2nc(-c3ccc(F)cc3)c(-c3ccc(S(C)(=O)=O)cc3)s2)cc1 |
| 278 to 281 °C | O=C(O)c1ccc2c(c1)S(=O)c1ccc([N+](=O)[O-])cc1C=C2 (centres undefined) |
| 61 to 65 °C | COC(=O)C(=NOC(F)F)c1ccccc1COc1cc(C)ccc1C |
| 157 to 161 °C | CC1(C)CC(O)CC(C)(C)N1OC(=NC1CCCCC1)NC1CCCCC1 |

| melting point | Structure (SMILES) |
| --- | --- |
| 190 to 195 °C | Cc1ccc(C(=O)n2c3c(c4ccccc42)CC(C(=O)O)(C(=O)O)CC3)cc1 |
| 250 °C | O=C1Cc2cc(Br)cnc2N1 |
| > 300 °C | CC(=O)Nc1cccc(Nc2ncnc3[nH]cc(C(=O)c4cccc(F)c4)c23)c1 |
| 180 to 184 °C | CN1C(C)(C)CC2(CC1(C)C)NC(=O)N(CC(O)COC(=O)CCCCC(=O)OCC(O)CN1C(=O)NC3(CC(C)(C)N(C)C(C)(C)C3)C1=O)C2=O (centres undefined) |
| 122 to 124 °C | O=C(O)C1C=C(c2ccccc2)CC1 (centres undefined) |
| 214 to 215 °C | CC(C)c1cc(-c2c3ccccc3c(Br)c3sc4ccccc4c23)cc(C(C)C)c1O[C@H](C)C(=O)O |
| 136 to 138 °C | CCCCc1nc(CCCC)n(Cc2ccc(-c3ccccc3-c3nnn[nH]3)cn2)n1 |
| 55 to 56 °C | C=CCOC(=O)C(C)N(C(=O)CCl)c1c(C)cccc1C (centres undefined) |
| 74 to 75 °C | NCCCCCCCC1OCC2(CO1)COC(CCCCCCCN)OC2 (centres undefined) |
| 116 to 119 °C | Cc1ccc2c(c1)c(=O)c1c(cnn1C)n2CCCl |
| 228 to 230 °C | Cc1nc(-c2[nH]c3ccccc3c2C=O)no1 |
| 145 to 150 °C | CCCc1ccc2c(c1)C=Cc1cc(C)ccc1C2c1cn(-c2ccnc(N(C)CC(=O)O)n2)c(=O)[nH]c1=S (centres undefined) |
| 155 to 158 °C | C=CCc1c(O)ccc2oc(C(=O)c3ccc(OC)cc3)c(C)c12 |
| 94 to 95 °C | Cn1nc(N)nc1NCCCOc1cccc(CN2CCCCC2)c1 |
| 114 °C | O=C(OCc1ccccc1)ON1C(=O)CC2(CCN(C(=O)OCc3ccccc3)CC2)C1=O |
| 238 to 239 °C | O=c1cc2c(nn1Cc1ccc(Cl)cc1)-c1ccccc1S(=O)(=O)CC2 |
| 133 to 139 °C | Fc1c(Cl)cc(C(/C=C/c2ccc3[nH]ccc3c2)C(F)(F)F)cc1Cl (centres undefined) |
| 179 to 181 °C | Cc1nn(-c2cc(Oc3ccc(O)cn3)c(Cl)cc2F)c(=O)n1C(F)F |
| 205 to 208 °C | CS(=O)(=O)c1ccc(-n2cc(CO)nc2-c2ccc(Cl)cc2)cc1 |
| 184 to 186 °C | CCc1nc(/C=C/c2cn(-c3ccccc3)nc2O)c(C)s1 |
| 139 to 141 °C | O=C(O)CCC1CNC(=O)CC1c1ccc(F)cc1 (centres undefined) |
| 220 °C | O=C(Nc1ccccc1Sc1ccccc1)N[C@@H](Cc1ccc(NC(=O)c2c(Cl)cccc2Cl)cc1)C(=O)O |

| melting point | Structure (SMILES) |
| --- | --- |
| 120 to 123 °C | O=C(Nc1ccc(N2CCN(C(=O)Nc3ccc(OCCO)cc3C(F)(F)F)CC2)cc1)Nc1nc(C2CC2)cs1 |
| 122 to 123 °C | O=C(NCc1ccccn1)c1ccnc(N2CCN(CC3CC3)C2=O)c1 |
| 185 °C | Cc1c(OCc2ccccn2)nn2c(-c3ccccc3)nnc2c1C |
| 211 to 213 °C | OC1CC2(CCN(C3CCC3)CC2)Oc2ccccc21 (centres undefined) |
| > 300 °C | O=[N+]([O-])c1cc(-c2nc3ccccc3[nH]2)cc(O)c1O |
| 101 to 102 °C | CCOC1CN(Cc2ccccc2OC)Cc2cc(OC)c(O)cc21 (centres undefined) |
| 192 °C | CCC(=O)N[C@H]1CC[C@H](CCN2CCN(c3nccc4c3CCO4)CC2)CC1 |
| 194 to 195 °C | COc1ccc(S(=O)(=O)N2C(=O)[C@@](c3ccccc3OC)(N3C[C@H](OC(C)=O)C[C@H]3C(=O)N(C)C)c3cc(Cl)ccc32)c(OC)c1 |
| 94 to 95 °C | CCOC(=O)C(NC(=O)c1ccccc1Cl)(c1nc(OC)cc(OC)n1)C(C)C (centres undefined) |
| 203 to 204 °C | CCCCN(CCCC)c1ccc(C=Cc2ccc(C=CC3=C(C#N)C(=C(C#N)C#N)OC3(c3ccccc3)C(F)(F)F)s2)c(OC)c1 (centres undefined) |
| 182 to 184 °C | Cc1cc2c(s1)C(C(=O)Nc1ccccc1)C(=O)N(C)S2(=O)=O (centres undefined) |
| 188 to 190 °C | CN(Cc1sc2c(=O)c(C(=O)NCc3ccc(Cl)cc3)cn(C)c2c1CO)CC(O)c1ccc(C#N)s1 (centres undefined) |
| 123 to 126 °C | Cn1nc(-c2cc(O)c(Cl)cc2F)c(Cl)c1C(F)(F)F |
| 148 to 150 °C | CC(c1ccccc1N1CCCCC1)C(C(N)=O)c1ccc(C(=O)N(C)C)cc1 (centres undefined) |
| 91 to 92.5 °C | C=CCNC(=O)N1CC(Oc2ccc(C(F)(F)F)cc2)C1 |
| 196 to 199 °C | O=C(NCC(=O)N1c2ccccc2N(Cc2ccccc2)C(=O)[C@H]2CCC[C@H]21)c1ccncc1 (relative stereo) |
| 132 to 133 °C | O=C(O)Cc1ccc(Cc2nc3c(F)c(F)cc(F)c3s2)s1 |
| 203 to 204 °C | CN1CC(c2cc(OCc3ccccc3)ncn2)=C(O)C1=O |
| 150 to 151 °C | CCS(=O)(=O)c1ccc(Oc2ccc(Cl)c(Cl)c2)nc1C#N |
| 108 to 111 °C | CC(C)(C)OC(=O)NC(Cc1ccccc1)C(O)CNCC(O)C(Cc1ccc(OCCN2CCOCC2=O)cc1)NC(=O)OC(C)(C)C (centres undefined) |
| 125 to 127 °C | CCOC(=O)c1cn(-c2ccc(OC)cc2)[nH]c1=O |
| 188 to 192 °C | O=C(Nc1ccc(C(F)(F)F)cc1)N1CC2CSc3cc(Cl)ccc3C2=N1 (centres undefined) |

| Structure (SMILES) | melting point |
| --- | --- |
| O=c1c2ccccc2nnn1CCCN1CC=C(c2c[nH]c3ccccc23)CC1 | 189 °C |
| O=C(CCNC(=O)[C@H](Cc1ccc(-c2ccccc2)cc1)NCP(=O)(O)Oc1ccccc1)OCc1ccccc1 | 243 to 244 °C |
| Fc1cc(F)c(F)c(N=C2NCCN2)c1F | 147 to 148 °C |
